How the values were obtained:
[1] = tested on: PDAC; details: cited from earlier work
[2] = tested on: human CFPAC-1 pancreatic tumor xenograft; experiment: Human CFPAC-1 pancreatic tumor xenograft efficacy (FIG. 2); type: in vivo, mice; details: for efficacy as compared to vehicles: CFPAC-1 xenograft
[3] = tested on: highly drug resistant tumor xenografts; experiment: Highly drug resistant tumor xenografts in mice; details: mouse, in vivo
[4] = tested on: Panc02 cells; experiment: Cell viability (MTT assay) in Panc02 cells; type: cell-based, murine; details: Mus musculus, 96 hours of drug exposure
Method: The murine pancreatic cancer cell line Panc02, which is syngeneic to C57Bl/6 mice was a kind gift from Professor Michael A. Hollingsworth, UNMC, Omaha, Nebr. Panc02 cells were grown in 75 cm^2 cell culture flasks and maintained in DMEM medium supplemented with 10% fetal bovine serum (FBS), L-glutamine and penicillin (100 U/ml)/streptomycin (100 μg/ml) (both from Gibco Life Technologies, Carlsbad, Calif., USA). Cells were incubated at 37° C. in a humidified atmosphere containing 5% CO2.
To see cytotoxic effect of different drugs and nanoemulsion formulation, 5000 cells were seeded in each well of the 96-well plate for overnight at 37° C. in a humidified atmosphere containing 5% CO2. Various drugs (Paclitaxel, Abraxane, Gemcitabine and solution and nanoemulsion of DHA-SBT-1214) were diluted at concentrations ranging from 0 nM, 0.01 nM, 0.1 nM, 1 nM, 10 nM, 100 nM, 1000 nM to 10000 nM and Panc02 cells treated with these concentrations for 96 hours. After incubation, cells were treated with 3-(4,5-dimethylthiazol-2-yl)-2,5-diphenyltetrazolium bromide ([…]). MU crystals were dissolved with DMSO and plates were read at 570 nm absorbance using a BioTek Synergy HTX Multi-Mode Microplate Reader.
Cells were seeded at 0.5×10^6 cells/well in 6-well plates for overnight at 37 C in a humidified atmosphere containing 5% CO2. […] The percentage maximal response is shown as a function of anti-cancer agents when administered to Panc02 cells. The cell viability was measured by the MTT assay after 96 hours of incubation at 37° C. Data represent mean±standard deviation (n=3). Significant differences are indicated as follows: *p<0.05, and **p<0.01. The expression level of PD-L1 was determined using flow cytometry as follows. […] The cells were washed once with 3% BSA/PBS and analyzed by flow cytometer on a FACSCalibur flow cytometer and CellQuest™ Pro version 6.0 software (both from Becton-Dickinson and Co.). […]

[5] = tested on: human PANC-1 pancreatic tumor xenograft; experiment: Human PANC-1 pancreatic tumor xenograft, schedule comparison (FIG. 3); type: in vivo, RPCI SCID mice
From the text: In FIG. 3, this experiment compared a q7d×3 with a q3d×3 schedule for paclitaxel and DHA-SBT-1214 using a human PANC-1 pancreatic tumor xenograft in RPCI SCID mice. […] Paclitaxel was only weakly effective, showing tumor growth delays of 18 days with q7d×3 schedule and 13 days with q3d×3 schedule and no CRs.

[6] = tested on: patient-derived PPT2 prostate cancer stem cell xenograft; experiment: Patient-derived prostate cancer stem cell (PPT2) xenograft model; type: in vivo, mice; details: patient-derived prostate CSC xenograft
[7] = tested on: PD-L1 surface expression in Panc02 cells; experiment: PD-L1 surface protein expression by flow cytometry; type: cell-based, murine; details: IC50 concentration, 48 hours
Method: Cells were seeded at 0.5×10^6 cells/well in 6-well plates for overnight at 37 C in a humidified atmosphere containing 5% CO2. […] The percentage maximal response is shown as a function of anti-cancer agents when administered to Panc02 cells. The cell viability was measured by the MTT assay after 96 hours of incubation at 37° C. Data represent mean±standard deviation (n=3). Significant differences are indicated as follows: *p<0.05, and **p<0.01. The expression level of PD-L1 was determined using flow cytometry as follows. Briefly, cells harvested from in vitro cultures were washed twice with 3% BSA/PBS and then incubated with rat anti-PD-L1 or isotype control antibodies ([…], BioXcell, West Lebanon, N.H., USA) for 30 minutes at 4 C, then washed three times and incubated with anti-rat AlexaFluor 488 conjugated Antibody. The cells were washed once with 3% BSA/PBS and analyzed by flow cytometer on a FACSCalibur flow cytometer and CellQuest™ Pro version 6.0 software (both from Becton-Dickinson and Co.).
Panc02 cells were treated with gemcitabine, Abraxane™, paclitaxel and DHA-SBT-1214 both in solution and nanoemulsion for 48 hours to determine whether they can induce PD-L1 protein expression. PD-L1 expression levels on tumor cells were determined by flow cytometry and is expressed as the A mean fluorescence intensity (ΔMFI; MFI using anti-PD-L1 subtracted from the isotype control). […] PD-L1 expression was analyzed using flow cytometry and is presented as ΔMFI (MFI using anti-PD-L1 subtracted from the isotype control). Data represent the mean±standard deviation of at least 3 independent experiments; *p<0.05, **p<0.01, ***p<0.001. As reported previously, PD-L1 level enhanced in pancreatic tumor tissues compared to in vitro growing cells as shown in FIG. 8.

## O=c1[nH]cc(F)c(=O)[nH]1 [5-FU, 5-flurouracil]
[1]; randomized Phase III trial, gemcitabine versus 5-FU
  median overall survival: 4.41 months

## CC/C=C\C/C=C\C/C=C\C/C=C\C/C=C\C/C=C/CCC(=O)O[C@@H](C(=O)O[C@H]1C[C@@]2(O)[C@@H](OC(=O)c3ccccc3)C3[C@](C)(C(=O)[C@H](OC(C)=O)C(=C1C)C2(C)C)[C@@H](O)C[C@H]1OC[C@@]31OC(C)=O)[C@@H](NC(=O)c1ccccc1)c1ccccc1 (stereo partly shown) [DHA-paclitaxel]
[2]
  efficacy as compared to vehicles: only minor tumor growth delay
[3]
  efficacy: do not show meaningful activity

## CC(=O)O[C@@]12CO[C@@H]1C[C@H](O)[C@@]1(C)C(=O)[C@H](OC(=O)C3CC3)C3=C(C)[C@@H](OC(=O)[C@H](O)[C@H](C=C(C)C)NC(=O)OC(C)(C)C)C[C@@](O)([C@@H](OC(=O)c4ccccc4)[C@H]21)C3(C)C [SBT-1214]
[2]; 120 mg/kg total dose, until day 20
  weight loss: < 4%

## CC(=O)O[C@H]1C(=O)[C@@]2(C)[C@H]([C@H](OC(=O)c3ccccc3)[C@]3(O)C[C@H](OC(=O)[C@H](O)[C@@H](NC(=O)c4ccccc4)c4ccccc4)C(C)=C1C3(C)C)[C@]1(OC(C)=O)CO[C@@H]1C[C@@H]2O [paclitaxel, reference compound]
[4]
  IC50: 443 nM
[2]
  efficacy as compared to vehicles: only minor tumor growth delay
[5]; PANC-1 xenograft
  complete responses (CRs): no CRs
[5]; q3d×3 schedule
  tumor growth delay: 13 days
[5]; q7d×3 schedule
  tumor growth delay: 18 days
[6]
  efficacy (tumor growth, survival): completely ineffective
[7]
  PD-L1 surface expression (ΔMFI): upregulated
[3]
  efficacy: do not show meaningful activity

## FOLFIRINOX
[1]; Phase III clinical trial of FOLFIRINOX
  median survival: 11.1 months
